# Assays:
# Type in all cases: in vivo, human
# psoriatic arthritis = test: Example 35: psoriatic arthritis, topical C20 and C26
# Description: A subject with a 40 year history of psoriasis and several years of psoriatic arthritis topically applied the formulations cited in Example 34 above. Formulation of C20 was applied to both hands. […] The formulation of C26 was applied to the left ankle and foot, pain of which was relieved in about 5 minutes and lasted for 4-5 hours.
# [1] = tested on: post trauma pain in the pinned ankle; test: Example 34: ankle pain after surgical insertion of metal screws; conditions: for extent of pain relief: 6% in WEP 244, topical
# Description: A subject with above described post trauma pain at the end of each day experienced painful discomfort in the pinned ankle. […] Complete relief lasted nearly 24 hours. At the end of the next day, the ankle was as painful as the days before. Subject applied 6% C20 in same liquid vehicle.
# pain in the left ankle = test: Example 8: post fracture acute ankle pain; conditions: before the test
# Excerpt: A subject with a history of fractured left ankle seven years earlier, who had worn a plaster cast for several weeks at that time, related that for the past three months disturbing and increasing pain in the left ankle, which was occurring daily and was disturbing their sleep every night. […] They were provided 8 ounces of the above Formulation A (Example 4), to be applied to the painful ankle as needed.
# [2] = tested on: painful swollen right knee; test: Example 9: painful swelling of knee joint, three topical formulations; conditions: before the test
# Description: A subject with relentless painful swollen right knee for 3-4 years, not relieved by oral ibuprofen, was tested and rated analgesic efficacy of the three following formulations applied topically to the knee. [table] [table] [table]
# [3] = tested on: Rheumatoid Arthritis (RA); test: Example 26: rheumatoid arthritis, intralesional injection and topical; conditions: 0.15 ml of 2% aqueous solution/suspension once weekly, 4 injections; over 9 weeks
# Description: A subject, described in an earlier Example, after approximately 4 months of worsening symptoms, and finger joint enlargements on both hands, realized that they were rapidly developing RA, especially when a rheumatoid nodule enlarged over the terminal joint of the left […] finger to a size of approximately 1 cm in diameter, and about 3 mm thick. The nodule was initially injected with 0.15 ml of a 2% aqueous solution/suspension of creatine monohydrate once weekly for 4 injections. […] Thereafter the subject wore a nitrile glove containing a few drops of C15 3-9% dissolved in WP 82 for an hour twice daily on the left hand only. After another 2 months C15 9% in WP 82 was topically applied by means of their wearing nitrile gloves containing the C15 solution for 1 hour twice daily. […] It is intended for the subject to continue topical treatment in one form or another for an indefinite time forward.
# [4] = tested on: arthritic pain in the right hip joint; test: Example 16: subcutaneous injection for hip pain
# Description: A subject who for several weeks was experiencing disabling arthritic pain in the right hip joint, was given two subcutaneous injections of a sterile 2% aqueous solution/suspension of creatine monohydrate over the point of pain, 0.5 ml given first, and 0.6 ml given five days later. […] A third subcutaneous injection of 0.7 ml of the 2% creatine monohydrate solution/suspension was given over the point of joint pain elicited by finger pressure. […] Hip remained pain free for another 2 weeks.
# [5] = tested on: rheumatoid arthritis; rheumatoid nodule; test: Example 13: rheumatoid arthritis fingers, nodule injection and glove application; conditions: nodule injected with 0.15 ml of 2% aqueous solution/suspension once weekly, four injections; over 9 weeks
# Description: A subject noted changes in their fingers that appeared to be compatible with the diagnosis of early rheumatoid arthritis in autumn of the year. At about one month later there appeared over the terminal interphalangeal joint of the left third finger a raised inflammatory nodule compatible with the diagnosis of a rheumatoid nodule. The nodule was injected with 0.15 ml of a 2% aqueous solution/suspension of creatine monohydrate once weekly for four injections. […] Thereafter, for a period of one month, the subject wore a nitrile glove containing a few drops N-acetyl ethyl creatine 3% dissolved in water: propylene glycol 8:2 for about an hour twice daily on the left hand only.
# [6] = tested on: psoriatic arthritis, painful, swollen and erythematous right ankle; test: Example 15: subcutaneous injection over ankle with psoriatic arthritis; conditions: 0.5 ml of 2% subcutaneous
# Description: A diabetic subject with psoriasis for over 4 decades, and worsening psoriatic arthritis for about 10 years, presented with an acutely painful, swollen and erythematous right ankle. Using a 1 ml insulin syringe with short needle they injected 0.5 ml of the 2% creatine monohydrate as described above into a subcutaneous site of the anterior ankle.
# dental pain = test: Example 17: post dental surgery pain; conditions: about 1 gram powder in mouth
# Description: A subject had three teeth, #23, 24 and 25 extracted at 12 noon, then had two implants posted immediately after. At about 6 pm, subject started to feel pain in the gum area after lidocaine anesthesia wore off. […] The subject took about 1 gram creatine monohydrate powder into mouth. The powder, as it dissolved in saliva, was rinsed for approximately 5 minutes, then swallowed. The dental pain stopped in about 20 minutes, and relief lasted for 8 hours.
# [7] = tested on: arthritis of cervical and thoracic spine; test: Example 14: subcutaneous injection over sites of spinal pain
# Description: A physician subject with continually worsening osteoarthritis of multiple joints for 15-16 years, prepared a sterile aqueous injectable solution/suspension of 2% creatine monohydrate. Under their direction, medical assistants were instructed on techniques to give subcutaneous injections of the 2% aqueous solution/suspension with either a 1 ml syringe with 27 gauge 13 mm needle or with a 1 ml insulin syringe with 30 gauge 8 mm needle.
# Five intervertebral painful sites of arthritis of cervical and thoracic spine, identified by finger pressure, received a single injection of 0.3 ml of the solution.
structure (smiles),measurement,setting,value
"CCOC(=O)CN(C)C(N)=NC(=O)c1ccccc1 [Compound C20, N-benzoyl ethyl creatinate]",extent of pain relief,psoriatic arthritis; 6% in WEP 244 applied to both hands,completely relieved
same,duration of relief,psoriatic arthritis; both hands,4 h
same,time to pain relief,psoriatic arthritis; both hands,about 2 minutes
same,extent of pain relief,[1],Some relief did occur but not complete as with C26
CC(C)Cc1ccc(C(C)C(=O)O)cc1 (stereo not shown) [ibuprofen],pain relief by oral comparator,pain in the left ankle,"did relieve the pain for several hours, but the pain always recurred"
same,pain relief by oral comparator,[2],not relieved
"CCOC(=O)CN(C)C(N)=NC(=O)c1ccccc1OC(C)=O [Compound C26, N-2-acetoxybenzoyl ethyl creatinate]",extent of pain relief,psoriatic arthritis; 6% in WEP 244 applied to left ankle and foot,relieved
same,duration of relief,psoriatic arthritis; left ankle and foot,4 to 5 h
same,time to pain relief,psoriatic arthritis; left ankle and foot,about 5 minutes
same,duration of complete relief,[1]; 6% in WEP 244,~24 h
same,time to pain relief,[1]; 6% in WEP 244,≤ 1 min
same,extent of pain relief,[1],completely relieved the pain
CN(CC(=O)O)C(=N)N.O [creatine monohydrate],resolution of rheumatoid nodule,[3],the nodule resolved almost completely
same,duration of complete relief of pain,[4]; after the first two injections,2 weeks
same,duration pain free,[4]; after third injection,2 weeks
same,time to complete relief of pain,"[4]; third injection, 0.7 ml",3 to 4 h
same,extent of pain relief,"[4]; third subcutaneous injection, 0.7 ml of 2%",Complete relieve of pain
same,extent of pain relief,"[4]; two subcutaneous injections of 2% solution/suspension, 0.5 ml and 0.6 ml five days later, person",Complete relief of pain
same,resolution of rheumatoid nodule,[5],the nodule resolved almost completely
same,edema and erythema of the ankle,[6],completely resolved within a week
same,state of ankle four weeks after the injection,[6],"remained pain free, was of normal appearance, and was completely functional as a normal ankle"
same,time to resolution of ankle pain,[6],about 30 minutes
same,extent of pain relief,"[6]; anterior ankle, person",Ankle pain completely resolved
same,duration of relief,dental pain,8 h
same,time until dental pain stopped,"dental pain; rinsed approximately 5 minutes, swallowed, person",about 20 minutes
same,extent of pain relief,[7]; single subcutaneous injection of 0.3 ml of 2% aqueous solution/suspension at five intervertebral sites,All sites/areas became pain free
same,time to pain free after injection,[7]; subcutaneous 0.3 ml of 2% per site,2 to 3 h
same,duration pain free,"[7]; subcutaneous 0.3 ml of 2% per site, no further therapy",7 weeks

# Reference: patent publication US20230218555A1, “CREATINE, ITS DERIVATIVES, COMPOSITIONS AND METHODS OF USE THEREOF” (priority 2021, published 2023)
